The assay has as its target T1, recombinant MARK3 enzyme (Homo sapiens, UniProt P27448).
T1 construct: purchased University of Dundee
Kind of assay: MARK 3 Assay (HTRF, Cdc25C biotinylated peptide substrate). It counts as biochemical. Particulars: MARK3, 10 μM ATP, 1 μM peptide substrate, 2 hours at 25° C. As to the method:
MARK3 activity was assayed in vitro using a Cdc25C biotinylated peptide substrate (Cell Signalling Technologies). The phosphopeptide product was quantitated using a Homogenous Time-Resolved Fluorescence (HTRF) assay system (Park et al., 1999, Anal. Biochem. 269:94-104). The reaction mixture contained 50 mM HEPES/Tris-HCl, pH 7.4; […], 5 mM MgCl2, 0.2 mM NaVO4, 5 mM β-glycerol phosphate, 0.1% Tween-20, 2 mM dithiothreitol, 0.1% BSA, 10 μM ATP, 1 μM peptide substrate, and 10 nM recombinant MARK3 enzyme (University of Dundee) in a final volume of 12 μL. The buffer additionally contained protease inhibitor cocktail (Roche EDTA-free, 1 tab per 50 ml). The kinase reaction was incubated for 2 hours at 25° C., and then terminated with 3 μl Stop/Detection Buffer (50 mM HEPES, pH 7.0, 16.6 mM EDTA, 0.5M KF, 0.1% Tween-20, 0.1% BSA, 2 μg/ml SLX^ent 665 (CISBIO), and 2 μg/mL Eu^3+ cryptate label antibody (CISBIO)). The reaction was allowed to equilibrate overnight at 0° C., and relative fluorescent units were read on an HTRF enabled plate reader (e.g. TECAN GENios Pro).
Inhibitor compounds were assayed in the reaction described above to determine compound IC50s. Aliquots of compound dissolved in DMSO were added to the reaction wells in a third-log dilution series covering a range of 1 nM to 10 μM. Relative phospho substrate formation, read as HTRF fluorescence units, was measured over the range of compound concentrations and a titration curve generated.
In general terms: Time-resolved FRET reads energy transfer from a long-lived donor to a nearby acceptor.

The results in this text go back to US8518911B2, “Pyrazolo[1,5-a]pyridines as MARK inhibitors” (Merck Sharp & Dohme Corp., priority 2008, dated 2013).

T1 sequence (P27448 whole entry, species assumed): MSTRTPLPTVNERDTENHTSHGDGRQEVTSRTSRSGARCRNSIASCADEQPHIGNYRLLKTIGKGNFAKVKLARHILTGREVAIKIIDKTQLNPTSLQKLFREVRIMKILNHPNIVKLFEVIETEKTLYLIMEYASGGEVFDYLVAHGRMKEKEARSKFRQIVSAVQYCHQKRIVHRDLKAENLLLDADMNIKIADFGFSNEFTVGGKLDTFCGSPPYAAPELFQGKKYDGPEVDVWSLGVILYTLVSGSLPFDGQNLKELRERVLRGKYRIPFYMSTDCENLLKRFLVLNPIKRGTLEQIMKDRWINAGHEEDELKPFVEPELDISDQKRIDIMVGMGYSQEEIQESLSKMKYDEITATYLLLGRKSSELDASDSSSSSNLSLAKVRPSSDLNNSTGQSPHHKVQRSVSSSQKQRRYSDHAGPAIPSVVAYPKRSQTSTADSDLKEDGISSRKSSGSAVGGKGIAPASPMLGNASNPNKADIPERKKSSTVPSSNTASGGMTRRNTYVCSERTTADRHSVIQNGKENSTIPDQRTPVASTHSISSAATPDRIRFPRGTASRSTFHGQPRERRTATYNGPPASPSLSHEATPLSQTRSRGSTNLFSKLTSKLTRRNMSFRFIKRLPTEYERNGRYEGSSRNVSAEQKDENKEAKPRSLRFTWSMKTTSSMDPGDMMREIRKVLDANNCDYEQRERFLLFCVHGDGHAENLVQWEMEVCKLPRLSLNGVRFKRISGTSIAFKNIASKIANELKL

The term IC50 denotes the midpoint of a concentration-inhibition curve. Consider `N[C@@H]1CCCC(F)(F)[C@@H]1NC(=O)c1nc(-c2cnn3cc(-c4ccc(F)cc4)ccc23)c(Cl)s1` [Example 1], for which the IC50 is 21 nM. As to `N[C@H]1CCCC(F)(F)[C@@H]1NC(=O)c1nc(-c2cnn3ccccc23)c(Cl)s1` [Example 7, N-[(1R,6S)-6-Amino-2,2-difluorocyclohexyl]-5-chloro-4-pyrazolo[1,5-a]pyridin-3-yl-1,3-thiazole-2-carboxamide], the concentration for half-maximal inhibition (IC50) was determined as 4 nM.

For the compound `C=C(C)c1ccc2c(-c3csc(C(=O)N[C@@H]4[C@@H](N)CCCC4(F)F)n3)cnn2c1` [Example 157, N-[(1R,6S)-6-Amino-2,2-difluorocyclohexyl]-4-(6-isopropenylpyrazolo[1,5-a]pyridin-3-yl)-1,3-thiazole-2-carboxamide], the IC50 is 0.5 nM. The value for `CCc1sc(C(=O)N[C@@H]2[C@@H](N)CCCC2(F)F)cc1-c1cnn2cc(F)ccc12` [Example 170, N-[(1R,6S)-6-Amino-2,2-difluorocyclohexyl]-5-ethyl-4-(6-fluoropyrazolo[1,5-a]pyridin-3-yl)thiophene-2-carboxamide] was 29 nM; that for `Cc1sc(C(=O)NC(CN)c2ccccc2)nc1-c1cnn2cc(-c3cnn(C)c3)ccc12` (stereo not drawn) [Example 182, N-(2-Amino-1-phenylethyl)-5-methyl-4-[6-(1-methyl-1H-pyrazol-4-yl)pyrazolo[1,5-a]pyridin-3-yl]-1,3-thiazole-2-carboxamide] was 13 nM; that for `N[C@@H]1CCCC(F)(F)[C@@H]1NC(=O)c1cc(-c2cnn3ccccc23)c(Cl)s1` [Example 206, N-[(1R,6R)-6-amino-2,2-difluorocyclohexyl]-5-chloro-4-pyrazolo[1,5-a]pyridin-3-yl-2-thiophenecarboxamide] was 19 nM.
